Experimental data as given in patent US10913710B2, “Benzene disulfonamide for the treatment of cancer” (priority 2017, dated 2021).

Molecular target: PDEδ (Homo sapiens (Human), UniProt O43924)
Assay: Fluorescence polarization competition binding assay: displacement titration of labeled Atorvastatin probe for KD
Settings: fluorescence polarization assay; activity classes; read-out: KD
Description: Example D.2: Displacement Titrations of Labeled Atorvastatin-Probe for the Determination of KD Values
Displacement Titrations of Labeled Atorvastatin-Probe for the Determination of KD Values:
The purification was followed by size exclusion gel filtration on a Superdex 75 S26/60 column using buffer A (25 mM Tris-HCl, pH 7.5, 150 mM NaCl and 3 mM DTE).

Compound	Kd [nM]
O=S(=O)(c1ccc(S(=O)(=O)N(Cc2ccc(Cl)cc2)C2CCCC2)cc1)N(Cc1cccc(Br)c1)CC1CCCCC1 [Compound 35, N1-(3-bromobenzyl)-N4-(4-chlorobenzyl)-N1-(cyclohexylmethyl)-N4-cyclopentylbenzene-1,4-disulfonamide]	30 to 100
O=S(=O)(NCC1CCOCC1)c1ccc(S(=O)(=O)N(Cc2ccc(Cl)cc2)C2CCCC2)cc1 [Compound 39]	30 to 100
O=S(=O)(c1ccc(S(=O)(=O)N(Cc2ccc(Cl)cc2)C2CCCC2)cc1)N(Cc1ccccc1)CC1CCCCC1 [Compound 9, N1-benzyl-N4-(4-chlorobenzyl)-N1-(cyclohexylmethyl)-N4-cyclopentylbenzene-1,4-disulfonamide]	1 to 30
O=S(=O)(NC1CCCC1)c1ccc(S(=O)(=O)N(Cc2ccccc2)Cc2ccccn2)cc1 [Compound 92, N1-benzyl-N4-cyclopentyl-N1-(pyridin-2-ylmethyl)benzene-1,4-disulfonamide]	1 to 30
O=S(=O)(NCC1CCCO1)c1ccc(S(=O)(=O)N(Cc2ccc(Cl)cc2)Cc2ccco2)cc1 (stereo not shown) [Compound 99, N1-(4-chlorobenzyl)-N1-(furan-2-ylmethyl)-N4-((tetrahydrofuran-2-yl)methyl)benzene-1,4-disulfonamide]	100 to 1000
CCOc1ccccc1CN(Cc1ccco1)S(=O)(=O)c1ccc(S(=O)(=O)N(CC)C2CCCCC2)cc1 [Compound 89, N1-cyclohexyl-N4-(2-ethoxybenzyl)-N1-ethyl-N4-(furan-2-ylmethyl)benzene-1,4-disulfonamide]	1 to 30
COc1ccc(CN(C2CCCCC2C)S(=O)(=O)c2ccc(S(=O)(=O)N(C)C3CCCCC3)cc2)cc1OC (stereo not shown) [Compound 57, N1-cyclohexyl-N4-(3,4-dimethoxybenzyl)-N1-methyl-N4-(2-methylcyclohexyl)benzene-1,4-disulfonamide]	100 to 1000
CCN(CC)S(=O)(=O)c1ccc(S(=O)(=O)N(Cc2ccc(OC)c(OC)c2)C2CCCCC2C)cc1 (stereo not shown) [Compound 68, N1-(3,4-dimethoxybenzyl)-N4,N4-diethyl-N1-(2-methylcyclohexyl)benzene-1,4-disulfonamide]	1 to 30
O=S(=O)(c1ccc(S(=O)(=O)N(Cc2ccc(F)cc2)Cc2ccc(F)cc2)cc1)N1CCCCC1 [Compound 78, N,N-bis(4-fluorobenzyl)-4-(piperidin-1-ylsulfonyl)benzenesulfonamide]	100 to 1000
O=S(=O)(NCc1ccc(O)cc1)c1ccc(S(=O)(=O)N(Cc2ccc(Cl)cc2)C2CCCC2)cc1 [Compound 14]	30 to 100
COc1ccc(CN(Cc2ccc(C)cc2)S(=O)(=O)c2ccc(S(=O)(=O)N(C)Cc3ccccc3)cc2)cc1 [Compound 73, N1-benzyl-N4-(4-methoxybenzyl)-N1-methyl-N4-(4-methylbenzyl)benzene-1,4-disulfonamide]	100 to 1000

Next, values leading:

Kd [nM]	Compound
100 to 1000	CCN(CC)S(=O)(=O)c1ccc(S(=O)(=O)N(Cc2ccccn2)Cc2ccco2)cc1 [Compound 46, N1,N1-diethyl-N4-(furan-2-ylmethyl)-N4-(pyridin-2-ylmethyl)benzene-1,4-disulfonamide]
100 to 1000	O=S(=O)(NC1CCCC1)c1ccc(S(=O)(=O)N(Cc2ccc(F)cc2)Cc2ccccc2F)cc1 [Compound 53, N1-cyclopentyl-N4-(2-fluorobenzyl)-N4-(4-fluorobenzyl)benzene-1,4-disulfonamide]
100 to 1000	CCOc1ccc(CN(C2CC2)S(=O)(=O)c2ccc(S(=O)(=O)N(C)C)cc2)cc1 [Compound 69, N1-cyclopropyl-N1-(4-ethoxybenzyl)-N4,N4-dimethylbenzene-1,4-disulfonamide]
> 1000	COc1ccc(CN(Cc2ccc(OC)c(OC)c2)S(=O)(=O)c2ccc(S(=O)(=O)N3CCCCC3)cc2)cc1 [Compound 95, N-(3,4-dimethoxybenzyl)-N-(4-methoxybenzyl)-4-(piperidin-1-ylsulfonyl)benzenesulfonamide]
100 to 1000	COc1cc(CN(C2CCCCC2)S(=O)(=O)c2ccc(S(=O)(=O)N(C)C3CCCCC3)cc2)cc(OC)c1OC [Compound 64, N1,N4-dicyclohexyl-N1-methyl-N4-(3,4,5-trimethoxybenzyl)benzene-1,4-disulfonamide]
